Measured values taken from US10294230B2, “3,3-difluoropiperidine carbamate heterocyclic compounds as NR2B NMDA receptor antagonists” (Rugen Holdings (Cayman) Limited, priority 2015, dated 2019).
Read-outs that look alike come from different tables or passages of the source.

What was measured:
[1] = test system: electroconvulsive threshold (tonic convulsions); experiment: Electroconvulsive Threshold Test (ECT); assay type: in vivo, rats; conditions: rats
Protocol: Test compound E1-8.2 was administered as the free base.
Rats were administered ECS (rectangular current: 0.6 ms pulse width, 1.5 s duration, 200 Hz) via earclip electrodes connected to a constant current shock generator (Ugo Basile: type 7801). Test compounds were administered by oral gavage (p.o.) 1 hour before the test at a dose volume of 5 mL/kg.
Treatment groups of 20 rats were exposed to ECS as follows: The first animal was exposed to 30 mA of ECS. […] (increases of 5 mA) until the first tonic convulsion was observed. Once the first tonic convulsion was observed, the intensity of ECS was decreased by 2 mA for the next animal and then decreased or increased by 2 mA from animal to animal depending on whether the previous animal convulsed or not. If the first animal did convulse (tonic convulsions) within 5 seconds, animal no2 is exposed to 25 mA, etc. . . . (decreases of 5 mA) until the absence of tonic convulsions was observed. At this point, the intensity of ECS was increased by 2 mA for the next animal and then decreased or increased by 2 mA from animal to animal depending on whether the previous animal convulsed or not. The minimum current intensity applied is 5 mA and the maximum 95 mA. The first 5 animals serve to approach threshold current and were not included in the analysis. The results are presented as the mean current intensity administered to the final 15 animals of a group. The test was performed blind. A positive percent change indicates an anticonvulsant effect. A negative percent change indicates a proconvulsant effect. The test substance was evaluated at 4 doses, typically using 0.5% dimethylsulfoxide, 4% hydroxypropyl-b-cyclodextrin water as a vehicle, and administered p.o. 60 minutes before ECS, and compared with a vehicle control group. Diazepam (16 mg/kg p.o.), administered under the same experimental conditions, was used as reference substance. The experiment included 6 groups. Data with the test substance was analyzed by comparing treated groups with vehicle control using one-way ANOVA followed by Dunnett's t tests.

NR2B receptor = NR2B receptor (Rattus norvegicus (Rat), UniProt P35439+Q00960); experiment: [3H] (E)-N1-(2-methoxybenzyl)-cinnamidine radioligand binding, rat brain membranes; conditions: for Ki: read-out: Ki at the NR2B receptor high affinity site
Sequence of NR2B receptor (Q00960 27-1482, other chains not shown): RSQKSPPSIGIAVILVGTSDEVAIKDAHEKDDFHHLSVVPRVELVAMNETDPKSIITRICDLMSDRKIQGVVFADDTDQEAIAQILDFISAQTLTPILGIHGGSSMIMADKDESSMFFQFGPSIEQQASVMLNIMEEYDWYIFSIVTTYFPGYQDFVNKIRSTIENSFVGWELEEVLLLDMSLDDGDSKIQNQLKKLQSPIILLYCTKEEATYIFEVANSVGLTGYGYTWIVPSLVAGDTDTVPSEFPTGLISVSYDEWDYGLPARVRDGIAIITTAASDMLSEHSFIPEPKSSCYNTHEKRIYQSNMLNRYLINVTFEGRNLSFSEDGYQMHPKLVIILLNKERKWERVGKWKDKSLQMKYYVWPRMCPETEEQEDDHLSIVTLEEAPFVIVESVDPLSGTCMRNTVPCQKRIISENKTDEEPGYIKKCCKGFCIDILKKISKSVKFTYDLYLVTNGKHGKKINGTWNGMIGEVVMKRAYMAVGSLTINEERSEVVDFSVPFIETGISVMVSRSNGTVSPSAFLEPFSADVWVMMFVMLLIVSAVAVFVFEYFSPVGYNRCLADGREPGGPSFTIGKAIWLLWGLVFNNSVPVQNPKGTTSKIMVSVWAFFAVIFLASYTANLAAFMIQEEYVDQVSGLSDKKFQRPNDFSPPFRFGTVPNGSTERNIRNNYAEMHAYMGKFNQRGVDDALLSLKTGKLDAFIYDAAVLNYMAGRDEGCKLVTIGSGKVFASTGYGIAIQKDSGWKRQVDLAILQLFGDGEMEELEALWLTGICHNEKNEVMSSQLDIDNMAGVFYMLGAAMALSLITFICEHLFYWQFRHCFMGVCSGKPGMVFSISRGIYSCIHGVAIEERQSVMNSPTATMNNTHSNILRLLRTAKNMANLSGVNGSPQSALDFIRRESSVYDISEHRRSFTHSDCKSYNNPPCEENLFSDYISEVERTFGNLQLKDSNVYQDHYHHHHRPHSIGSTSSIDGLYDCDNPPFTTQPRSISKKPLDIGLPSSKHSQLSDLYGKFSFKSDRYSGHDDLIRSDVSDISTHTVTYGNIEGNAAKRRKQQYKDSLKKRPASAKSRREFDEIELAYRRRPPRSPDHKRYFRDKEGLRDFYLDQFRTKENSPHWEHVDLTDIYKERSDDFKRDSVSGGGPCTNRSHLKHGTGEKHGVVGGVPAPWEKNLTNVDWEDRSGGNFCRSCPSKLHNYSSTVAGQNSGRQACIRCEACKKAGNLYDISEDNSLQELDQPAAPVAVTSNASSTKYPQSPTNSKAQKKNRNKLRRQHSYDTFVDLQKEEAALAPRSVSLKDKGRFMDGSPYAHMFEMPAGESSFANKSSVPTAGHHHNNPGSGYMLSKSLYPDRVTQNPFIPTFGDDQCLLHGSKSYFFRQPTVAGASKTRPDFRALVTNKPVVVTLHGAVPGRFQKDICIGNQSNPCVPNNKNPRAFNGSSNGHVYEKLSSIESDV
Protocol: (§1) This example describes NMDA receptor binding assays using two different radioligands, [^3H] […] An established binding assay using the non-selective NMDA receptor ligand [^3H] […] The binding assay method using the NR2B selective receptor ligand [^3H] […] This assay serves as a selective measure of NR2B receptor binding activity in native rat brain receptors. Briefly, the brains of Male Wistar rats were homogenized (Polytron) before centrifugation at 40,000×g for 15 minutes at 4° C. After 2 washes, the final pellet was homogenized and stored at −80° C. The protein concentration was determined by Bradford assay.
[^3H] […] Thus, using [^3H]
(§2) Test compounds were solubilized at 10 mM in DMSO. Then the dilutions were performed with a constant solvent concentration (1% DMSO) in the assay.
(§3) After incubation for 4.5 h at room temperature, the assays were filtered on GF/B filters pretreated with 0.3% (v/v) PEI with a Brandel system for [^3H] […] The experiment was performed in duplicate (n=2).

human NR1/NR2B = human NR1/NR2B (Homo sapiens (Human), UniProt Q05586+Q13224); experiment: NR2B antagonist activity, Fluo-4 calcium influx in HEK293 cells; assay type: cell-based
Sequence of human NR1/NR2B (Q13224 27-1484, other chains not shown): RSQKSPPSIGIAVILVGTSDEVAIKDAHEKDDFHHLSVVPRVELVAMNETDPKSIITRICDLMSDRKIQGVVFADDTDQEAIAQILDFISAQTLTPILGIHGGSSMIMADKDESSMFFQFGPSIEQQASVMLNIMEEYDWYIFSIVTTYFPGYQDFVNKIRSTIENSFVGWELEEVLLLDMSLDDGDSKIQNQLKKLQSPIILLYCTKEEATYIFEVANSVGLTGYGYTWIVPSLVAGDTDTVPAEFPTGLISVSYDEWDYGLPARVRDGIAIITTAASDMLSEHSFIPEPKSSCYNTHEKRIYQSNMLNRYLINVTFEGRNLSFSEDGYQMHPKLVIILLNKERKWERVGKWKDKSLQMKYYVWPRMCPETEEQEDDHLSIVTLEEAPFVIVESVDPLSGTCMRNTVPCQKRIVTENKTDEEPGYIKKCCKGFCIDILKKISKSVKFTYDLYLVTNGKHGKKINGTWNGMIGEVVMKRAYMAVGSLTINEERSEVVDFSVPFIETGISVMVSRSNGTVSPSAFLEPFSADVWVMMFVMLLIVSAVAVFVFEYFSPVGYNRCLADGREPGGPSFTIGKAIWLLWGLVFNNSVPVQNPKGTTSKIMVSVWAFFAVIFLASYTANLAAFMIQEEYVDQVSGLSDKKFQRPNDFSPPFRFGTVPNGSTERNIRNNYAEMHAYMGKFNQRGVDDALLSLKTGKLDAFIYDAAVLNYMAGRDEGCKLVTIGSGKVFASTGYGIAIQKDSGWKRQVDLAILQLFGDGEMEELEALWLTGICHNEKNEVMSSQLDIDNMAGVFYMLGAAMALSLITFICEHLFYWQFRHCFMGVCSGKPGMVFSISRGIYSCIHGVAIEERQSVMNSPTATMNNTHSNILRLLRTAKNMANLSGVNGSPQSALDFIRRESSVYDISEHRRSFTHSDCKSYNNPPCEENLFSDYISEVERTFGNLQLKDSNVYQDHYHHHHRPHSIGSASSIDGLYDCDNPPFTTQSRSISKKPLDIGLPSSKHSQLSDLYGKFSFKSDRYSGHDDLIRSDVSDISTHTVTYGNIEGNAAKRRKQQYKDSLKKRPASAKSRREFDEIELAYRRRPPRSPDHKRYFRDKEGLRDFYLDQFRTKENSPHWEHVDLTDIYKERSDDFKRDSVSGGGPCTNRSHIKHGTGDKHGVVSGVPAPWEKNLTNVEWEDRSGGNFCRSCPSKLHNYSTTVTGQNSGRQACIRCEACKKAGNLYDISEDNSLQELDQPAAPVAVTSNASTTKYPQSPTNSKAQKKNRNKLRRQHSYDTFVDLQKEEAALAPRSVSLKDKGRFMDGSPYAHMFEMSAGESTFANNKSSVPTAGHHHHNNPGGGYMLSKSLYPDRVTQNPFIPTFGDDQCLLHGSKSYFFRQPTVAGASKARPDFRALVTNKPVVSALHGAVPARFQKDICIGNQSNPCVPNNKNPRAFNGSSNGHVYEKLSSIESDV
Protocol: (§4) HEK293 cell lines stably expressing cloned human NR1/NR2B and NR1/NR2A, respectively, were established according to standard previously described methods (Hansen et al., Comb. Chem High Throughput Screen. 11:304, 2008). Activation of the NR2A or NR2B subtype of NMDA receptor with glutamate as an agonist and glycine co-agonist on these cells results in calcium influx, which can be monitored with fluorescent indicator Fluo-4.
(§5) For experiments, the cells were seeded onto poly-D-lysine-coated 96-well black plates with clear bottom (Corning) at a density of ˜50,000 cells/well. After overnight culture, the growth medium was removed from the wells and the cells were incubated at 37° C. for 60 min in Hanks buffer containing 4 μM fluo-4-AM (Invitrogen) and 0.1% bovine serum albumin (BSA). After dye-loading, the cells were washed three times with Hanks buffer and incubated for 10 min at room temperature with various concentrations of test compounds prepared in Hanks buffer with 0.1% BSA. The cell plates were placed onto FDSS pCell fluorescence reader (Hamamatsu). After 20 sec reading of background fluorescence, agonist glutamate at final 100 μM and co-agonist glycine at final 50 μM were added to the cells to activate the receptor, and the resulting fluorescence changes were recorded and quantified. Based on the changes in fluorescence intensity, the pharmacological effect of test compounds were analyzed and the IC50 values derived from a non-linear least squares fitting of the concentration-dependent response to a standard logistic equation using Prism (Graphpad, Inc): Amplitude=Max Amplitude/(1+(IC50/[antagonist])^n).

hERG channel = hERG channel (Homo sapiens (Human), UniProt Q12809); experiment: hERG channel inhibition, whole cell patch clamp in HEK293 cells; assay type: cell-based; conditions: for IC50: HEK293, whole cell patch clamp
Sequence of hERG channel (Q12809 whole entry): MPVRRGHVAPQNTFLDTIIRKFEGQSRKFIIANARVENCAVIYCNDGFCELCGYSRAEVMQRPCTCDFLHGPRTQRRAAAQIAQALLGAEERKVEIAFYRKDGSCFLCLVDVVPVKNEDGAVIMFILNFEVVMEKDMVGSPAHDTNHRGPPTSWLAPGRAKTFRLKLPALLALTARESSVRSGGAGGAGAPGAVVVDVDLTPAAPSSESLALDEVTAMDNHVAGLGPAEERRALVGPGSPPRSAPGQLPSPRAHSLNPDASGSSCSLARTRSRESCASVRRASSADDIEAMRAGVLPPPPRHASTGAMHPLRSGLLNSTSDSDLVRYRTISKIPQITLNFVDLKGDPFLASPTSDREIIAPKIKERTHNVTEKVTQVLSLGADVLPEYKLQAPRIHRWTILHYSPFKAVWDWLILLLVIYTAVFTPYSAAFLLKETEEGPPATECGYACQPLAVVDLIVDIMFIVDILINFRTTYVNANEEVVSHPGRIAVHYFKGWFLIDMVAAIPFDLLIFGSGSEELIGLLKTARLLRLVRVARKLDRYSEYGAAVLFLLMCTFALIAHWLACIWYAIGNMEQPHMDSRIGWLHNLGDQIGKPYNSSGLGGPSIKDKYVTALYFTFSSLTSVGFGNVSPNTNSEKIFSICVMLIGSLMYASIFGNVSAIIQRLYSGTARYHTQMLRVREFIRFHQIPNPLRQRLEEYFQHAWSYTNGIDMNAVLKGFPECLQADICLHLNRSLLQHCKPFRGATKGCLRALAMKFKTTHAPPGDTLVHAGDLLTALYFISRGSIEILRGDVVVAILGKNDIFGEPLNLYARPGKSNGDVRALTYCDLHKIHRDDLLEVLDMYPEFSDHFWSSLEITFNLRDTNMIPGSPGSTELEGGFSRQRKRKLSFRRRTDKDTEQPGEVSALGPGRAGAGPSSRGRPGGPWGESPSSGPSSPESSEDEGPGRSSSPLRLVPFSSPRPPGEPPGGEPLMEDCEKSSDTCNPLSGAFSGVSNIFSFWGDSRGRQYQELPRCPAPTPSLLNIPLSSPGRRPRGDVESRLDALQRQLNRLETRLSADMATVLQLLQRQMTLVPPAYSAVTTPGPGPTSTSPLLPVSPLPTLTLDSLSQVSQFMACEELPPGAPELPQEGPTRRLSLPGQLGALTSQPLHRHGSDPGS
Protocol: The assay was performed on hERG channel stably expressed in HEK293 cells. The cells were cultured at 37° C. in a humidified CO2 incubator in the growth medium consisting of DMEM, 10% fetal bovine serum and antibiotics. Prior to the assay, the cells were seeded onto a 12 mm PDL-coated glass coverslip and cultured in a 35 mm Petri dish. After 16 to 40 hr culture, the cover slip was transferred into the chamber of OctaFlow perfusion system (ALA Instrument) and under a constant flow of extracellular solution (140 mM NaCl, 4 mM KCl, 1 mM MgCl2, 2 mM CaCl2, 10 mM HEPES, 10 mM D-glucose, pH 7.35, osmolarity 290). Whole cell patch clamping was performed with a glass micropipette filled with intracellular solution (120 mM KCl, 1.75 mM MgCl2, 5.4 mM CaCl2, 10 mM HEPES, 10 mM EGTA, and 4 mM ATP-K2, PH 7.2, osmolarity 310). Giga-seal was maintained during the test. The voltage control and current measurement were carried out using Axon amplifier 700B, Digidata 1440A and CLAMPEX10 software (Molecular Devices). Whole-cell hERG currents were recorded following the Petroski protocol: the cell was held at −80 mV, and the voltage step jumped from −80 to 30 mV and stay for 2 sec with a 20 ms prepulse at −40 mV. After depolarization, the voltage was decreased to −40 mV and stay for 2 sec, and returned back to −80 mV. Test compound was applied by quartz capillary tubes tip (200 μm inner diameter), and the flow rate was controlled at 2-3 ml/min with OctaFlow perfusion system. Different concentrations of the compound were applied to the cells for 5 min and the hERG current was measured three times before, during and after compound treatment. The data were analyzed using Clampfit 10 software (Molecular Devices) to generate IC50 values.

CYP2D6 = CYP2D6 (Homo sapiens (Human), UniProt P10635); experiment: CYP P450 enzyme inhibition, pooled human liver microsome; assay type: in vitro ADME; conditions: pooled HLM, dextromethorphan 5 μM
Sequence of CYP2D6 (P10635 whole entry): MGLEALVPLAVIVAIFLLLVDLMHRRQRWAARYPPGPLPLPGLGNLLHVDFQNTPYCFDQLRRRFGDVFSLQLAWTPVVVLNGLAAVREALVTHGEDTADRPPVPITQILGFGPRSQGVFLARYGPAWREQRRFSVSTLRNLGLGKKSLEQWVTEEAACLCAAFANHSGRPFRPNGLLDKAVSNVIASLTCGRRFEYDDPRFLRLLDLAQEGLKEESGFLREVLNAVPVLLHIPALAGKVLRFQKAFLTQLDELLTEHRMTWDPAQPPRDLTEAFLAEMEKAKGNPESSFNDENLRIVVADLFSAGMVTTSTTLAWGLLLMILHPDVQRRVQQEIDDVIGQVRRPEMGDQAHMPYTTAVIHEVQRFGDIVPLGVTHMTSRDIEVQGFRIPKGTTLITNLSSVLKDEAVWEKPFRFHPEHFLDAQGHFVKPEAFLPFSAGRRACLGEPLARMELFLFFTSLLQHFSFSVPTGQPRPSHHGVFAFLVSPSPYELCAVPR
Protocol: Those CYP isoforms and their corresponding probe substrates are as follows: CYP1A2 (phenacetin, 30 μM), CYP2C9 (tolutamide, 100 μM), CYP2C19 (S-mephenytoin, 40 μM), CYP2D6 (dextromethorphan, 5 μM) and CYP3A4 (midazolam, 1 μM). All probe substrates were used at concentrations near or below their Kms. For experiment, a reaction mixture of test compound at 10 μM or in serial dilution, CYP probe substrate described above and 0.2 mg/mL pooled HLM in phosphate buffer, pH 7.4 in a final volume of 200 μL was pre-incubated at 37° C. for 10 minutes in triplicate. The reaction was initiated by addition of NADPH at final concentration of 1 mM. The reaction was terminated after 10 minutes (CYP1A2, CYP2D6 and CYP3A4) or 30 minutes (CYP2C9 and CYP2C19) by addition of 100 μL ice-cold acetonitrile with internal standard (IS). The samples were then centrifuged at 13,000 rpm and the supernatants were injected to LC-MS/MS (Agilent Technologies) to quantify the concentration of the specific metabolites of the probe substrates formed by individual CYP450 isoforms. The inhibition ratio is calculated as: (Mt−M0)/Mwater×100% in which Mt and M0 represent the concentrations of the specific probe substrate metabolite, which was formed by individual CYP450 isoform, at the beginning and end of the reaction in the presence of test compound; while Mwater represents the concentration of the specific metabolite at the end of the reaction in the absence of test compound. Test compound concentration-dependent response data experiments performed in triplicate.

NMDA receptor = experiment: [3H] MK-801 radioligand binding, rat brain membranes; conditions: 2 nM [3H] MK-801
Protocol: as §1, §2, §3

human NR1/NR2A = human NR1/NR2A (Homo sapiens (Human), UniProt Q05586+Q12879); experiment: NR2A antagonist activity, Fluo-4 calcium influx in HEK293 cells; assay type: cell-based; conditions: Table 2.1, glutamate 100 μM, glycine 50 μM
Protocol: as §4, §5

[2] = test system: KCl-induced cortical spreading depression; experiment: Cortical Spreading Depression (CSD), aura phase of migraine model; assay type: in vivo; conditions: rats
Protocol: The cortical spreading depression model is utilized to investigate whether treatment with compounds of the present invention affect electrophysiological and hemodynamic events in a rat model of migraine.
Rats were anesthetized with 5% isoflurane (in 70% N2O and 30% O2; flow 300 ml/min) and placed in a stereotactic frame. […] The rectal temperature was maintained at 37.0±1.0° C. with a homeothermic blanket system. The skin was opened by a medial incision and retracted laterally. Three burr holes were drilled under saline cooling over the right hemisphere at the following coordinates (mm from bregma): (1) posterior 4.5, lateral, 2.0 (occipital cortex): KCl application site; (2) posterior 0.5, lateral 2.0 (parietal cortex): LDF recording site; (3) anterior 2, lateral 2 (frontal cortex): DC potential recording site. A laser-Doppler flow probe (Oxyflow, Oxford Optronics, UK) to monitor CBF and an invasive Ag/AgCl electrode for measuring direct current (DC) potential shifts were placed in the parietal and frontal cortex burr holes on the intact dura and in the cortex, respectively. The laser-Doppler flow probe was positioned in an area free of large pial and dural vessels to minimize a large-vessel contribution to the signal. For the DC-potential measurement, a reference electrode was fixed in the neck. Dura overlying the occipital cortex was gently removed and care was taken to avoid bleeding. After surgical preparation, the cortex was allowed to recover for 15 minutes under saline irrigation. A cotton ball (2 mm diameter) soaked with 1M KCl was placed on the pial surface and kept moist by placing 5 μl of KCl solution every 15 minutes. Test compound or vehicle was administered ten (10) minutes prior to CSD initiation. […] The number of KCl-induced CSDs was counted for 2 hours. The CBF and DC-potentials were monitored continuously starting from 5 minutes before KCl exposure.
Test compound E1-1.2 was administered as a mesylate salt (mpk based on molecular weight of the mesylate salt).
The data was collected in Windaq acquisition software (Dataq Instruments, USA) at 20 kHz. The raw data was analyzed in Clampfit program (Axon Instruments, USA). The signals were low pass filtered (cut off range 5-10000 Hz) that CSD episodes in DC and CBF could be confirmed. The following parameters were analyzed: i) the number, duration and amplitude of DC-potentials, and ii) the number and amplitude of CBF events.
Doses were given as milligram per kilogram (mpk). […] Bars represent mean±Standard Error of Mean (SEM), and differences were considered to be statistically significant at the P<0.05 level (n=8, * different from vehicle group). Statistical analysis was performed using StatsDirect statistical software. Differences between groups were analyzed by using 1-way ANOVA and Dunnett's post hoc test.

[3] = Table 2.1, HEK293 human NR1/NR2B, glutamate 100 μM, glycine 50 μM
[4] = E1-1.2 at various doses, MK-801 1.25 mg/kg

| Compound | displacement of [3H] (E)-N1-(2-methoxybenzyl)-cinnamidine at the NR2B receptor high affinity site (NR2B receptor; rat brain membranes) | IC50 (human NR1/NR2B; [3]) | IC50 (human NR1/NR2B; Table 2.2) | IC50 (human NR1/NR2B; Table 2.3) | hERG @ 10 μM (%) (hERG channel) | CYP2D6 @ 10 μM (%) (CYP2D6) | partial effect on [3H] MK-801 binding (NMDA receptor) | further results |
| --- | --- | --- | --- | --- | --- | --- | --- | --- |
| CN1C(=O)CN=C(c2ccccc2)c2cc(Cl)ccc21 [diazepam, reference compound] | – | – | – | – | – | – | – | electroconvulsive threshold, pro-/anticonvulsant activity ([1]; 16 mpk p.o.): expected anticonvulsant activity |
| Cc1ccc(COC(=O)N2CC[C@H](CNc3nc4ccccn4n3)C(F)(F)C2)cc1 [Compound E1-9.2, (+)-R-4-methylbenzyl 4-(([1,2,4]triazolo[1,5-a]pyridin-2-ylamino)methyl)-3,3-difluoropiperidine-1-carboxylate] | 97% | 48.2 nM | 48.2 nM | 48.2 nM | 38% | 14% | 34% | Ki (NR2B receptor): 11.3 nM |
| COc1ccccc1CNC(=N)/C=C/c1ccccc1 [(E)-N1-(2-methoxybenzyl)-cinnamidine, reference compound] | – | – | – | – | – | – | – | Ki (NR2B receptor; rat brain membranes, [3H] (E)-N1-(2-methoxybenzyl)-cinnamidine): 0.18 nM |
| CCc1ccc(COC(=O)N2CC[C@H](CNc3nccn4cnnc34)C(F)(F)C2)cc1 [Compound E1-1.5, R-4-ethylbenzyl 4-(([1,2,4]triazolo[4,3-a]pyrazin-8-ylamino)methyl)-3,3-difluoropiperidine-1-carboxylate] | 97% | – | – | – | – | – | 48% | – |
| Cc1ccc(COC(=O)N2CC[C@H](CNc3ncc4cn[nH]c4n3)C(F)(F)C2)cc1 [Compound E1-8.2, (+)-R-4-methylbenzyl-4-((1H-pyrazolo[3,4-d]pyrimidin-6-ylamino)methyl)-3,3-difluoropiperidine-1-carboxylate] | 95% | 17 nM | 17 nM | 17 nM | 57% | 83% | 33% | electroconvulsive threshold, pro-/anticonvulsant activity ([1]; 0.5 and 2 mpk p.o., free base): modest proconvulsant activity; electroconvulsive threshold, pro-/anticonvulsant activity ([1]; 10 and 20 mpk p.o., free base): anticonvulsant activity; IC50 (hERG channel): 6800 nM; IC50 (CYP2D6): 5900 nM |
| Cc1ccc(COC(=O)N2CC[C@H](CNc3cncc4nncn34)C(F)(F)C2)cc1 [Compound E1-2.2, R-4-methylbenzyl 4-(([1,2,4]triazolo[4,3-a]pyrazin-5-ylamino)methyl)-3,3-difluoropiperidine-1-carboxylate] | – | 10.4 nM | 10.4 nM | 10.4 nM | 32% | 18% | – | IC50 (human NR1/NR2A): > 10000 nM |
| MK-801 [reference compound] | – | – | – | – | – | – | – | number of CBF events vs vehicle ([2]; E1-1.2 at 10 mg/kg, MK-801 at 1.25 mg/kg): decreased; amplitude of DC potentials vs vehicle [2, 4]: not statistically different; duration of DC potentials vs vehicle [2, 4]: increased |
| Cc1ccc(COC(=O)N2CC[C@H](CNc3ncccn3)C(F)(F)C2)cc1 [Compound E1-22.2, (+)-R-4-methylbenzyl 3,3-difluoro-4-((pyrimidin-2-ylamino)methyl)-piperidine-1-carboxylate] | – | – | – | – | – | – | – | IC50 (hERG channel): > 10000 nM |
| FC(F)(F)c1ccc(C(F)(F)CN2CCC(Nc3ncnc4[nH]ncc34)CC2)cc1 [LX-1, reference compound] | – | – | – | – | – | 93% | – | – |
| Cn1c(=O)c2[nH]cnc2n(C)c1=O [theophylline, reference compound] | – | – | – | – | – | – | – | electroconvulsive threshold, pro-/anticonvulsant activity ([1]; 128 mpk p.o.): expected proconvulsant activity |
